Assay results from patent US20230303552A1, “ARYLSULFONYL DERIVATIVES AND THEIR USE AS MUSCARINIC ACETYLCHOLINE RECEPTOR M5 INHIBITORS” (Vanderbilt University, priority 2020, published 2023).

Target: T1, human M5 receptors (hM5) (Homo sapiens, UniProt P08912)
T1 construct: expressed in transfected cells
T1 sequence (P08912 1-532): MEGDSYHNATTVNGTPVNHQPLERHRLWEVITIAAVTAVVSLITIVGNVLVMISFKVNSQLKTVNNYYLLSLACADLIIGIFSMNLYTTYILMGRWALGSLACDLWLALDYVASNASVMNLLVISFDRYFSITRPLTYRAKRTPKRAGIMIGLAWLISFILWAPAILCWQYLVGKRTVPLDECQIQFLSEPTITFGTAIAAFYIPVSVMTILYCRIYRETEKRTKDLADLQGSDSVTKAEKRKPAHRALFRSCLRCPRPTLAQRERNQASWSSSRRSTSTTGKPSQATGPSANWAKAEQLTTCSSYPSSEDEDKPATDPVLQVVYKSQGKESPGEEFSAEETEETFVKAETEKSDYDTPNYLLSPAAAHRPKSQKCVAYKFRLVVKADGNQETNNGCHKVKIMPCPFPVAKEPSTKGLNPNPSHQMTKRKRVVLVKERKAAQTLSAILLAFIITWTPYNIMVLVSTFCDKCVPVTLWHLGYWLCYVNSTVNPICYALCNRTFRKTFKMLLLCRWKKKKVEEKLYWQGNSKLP
Assay: Cell-based functional calcium mobilization assay of mAChR M5 activity (inhibition of EC80 acetylcholine response) in CHO cells
Conditions: CHO cells stably expressing hM5; for IC50: calcium flux (Fluo-4), EC80 acetylcholine addition; for EC80 MIN: minimum of EC80 acetylcholine response, normalized to maximum acetylcholine response
Summary of the method: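 CHO cells stably expressing human M5, loaded with Fluo-4 AM in HBSS/20 mM HEPES/2.5 mM probenecid pH 7.4. Compound added 140 s before acetylcholine EC20, then EC80 added 125 s later. Calcium flux normalized to maximal acetylcholine response; IC50 from ten-point curves in the EC80 window.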

| Compound | IC50 [µM] | EC80 MIN [%] |
| --- | --- | --- |
| COc1ccc(S(=O)(=O)N2CCC(C(=O)Nc3ccc4scnc4c3)CC2)c(C)c1 [Compound 62, N-(benzo[d]thiazol-5-yl)-1-((4-methoxy-2-methylphenyl)sulfonyl)pipe ridine-4-carboxamide] | > 10 | 22 |
| O=C(Nc1ccc2scnc2c1)C1CCN(S(=O)(=O)c2cccc(F)c2)CC1 [Compound 63, N-(benzo[d]thiazol-5-yl)-1-((3-fluorophenyl)sulfonyl)piper idine-4-carboxamide] | 2.55 | 2 |
| O=C(Nc1ccc2scnc2c1)C1CCN(S(=O)(=O)c2ccccc2C(F)(F)F)CC1 [Compound 64, N-(benzo[d]thiazol-5-yl)-1-((2-(trifluoromethyl)phenyl)sulfonyl)piperidine-4-carboxamide] | > 10 | 2 |
| O=C(Nc1ccc2scnc2c1)C1CCN(S(=O)(=O)c2ccccc2Cl)CC1 [Compound 65, N-(benzo[d]thiazol-5-yl)-1-((2-chlorophenyl)sulfonyl)piper idine-4-carboxamide] | 0.652 | 2 |
| O=C(Nc1ccc2scnc2c1)C1CCN(S(=O)(=O)c2ccc(Cl)cc2)CC1 [Compound 66, N-(benzo[d]thiazol-5-yl)-1-((4-chlorophenyl)sulfonyl)piper idine-4-carboxamide] | > 10 | 16 |
| O=C(Nc1ccc2scnc2c1)C1CCN(S(=O)(=O)c2ccc(F)cc2)CC1 [Compound 67, N-(benzo[d]thiazol-5-yl)-1-((4-fluorophenyl)sulfonyl)piper idine-4-carboxamide] | > 10 | 7 |
| O=C(Nc1ccc2scnc2c1)C1CCN(S(=O)(=O)c2ccccn2)CC1 [Compound 68, N-(benzo[d]thiazol-5-yl)-1-(pyridin-2-ylsulfonyl)piperidine-4-carboxamide] | > 10 | 39 |
| O=C(Nc1ccc2scnc2c1)[C@@H]1CCN(S(=O)(=O)c2cc(I)c3c(c2)CCO3)C1 [Compound 74, (R)-N-(benzo[d]thiazol-5-yl)-1((7-iodo-2,3-dihydrobenzofuran-5-yl)sulfonyl)pyrrolidine-3-carboxamide] | 0.895 | 2 |
| O=C(Nc1ccc2scnc2c1)[C@@H]1CCN(S(=O)(=O)c2ccc(Cl)nc2)C1 [Compound 76, (R)-N-(benzo[d]thiazol-5-yl)-1-((6-chloropyridin-3-yl)sulfonyl)pyrrolidine-3-carboxamide] | > 10 | 23 |
| C[C@H]1CN(S(=O)(=O)c2ccc3c(c2)CCO3)C[C@@H]1C(=O)Nc1ccc2scnc2c1 [Compound 78] | 0.076 | 3 |
| Cc1cc(S(=O)(=O)N2CC[C@@H](C(=O)Nc3ccc4scnc4c3)C2)cc2c1OCC2 [Compound 83, (R)-N-(benzo[d]thiazol-5-yl)-1-((7-methyl-2,3-dihydrobenzofuran-5-yl)sulfonyl)pyrrolidine-3-carboxamide] | 1.46 | 3 |
| CN(C(=O)C1CCN(S(=O)(=O)c2ccc3c(c2)CCO3)CC1)c1ccc2scnc2c1 [Compound 84, N-(Benzo[d]thiazol-5-yl)-1-((2,3-Dihydrobenzofuran-5-yl)Sulfonyl)-N-Methylpiperidine-4-Carboxamide] | > 10 |  |
| CC(=O)N(C(=O)C1CCN(S(=O)(=O)c2ccc3c(c2)CCO3)CC1)c1ccc2scnc2c1 [Compound 85, N-Acetyl-N-(Benzo[d]thiazol-5-yl)-1-((2,3-Dihydrobenzofuran-5-yl)Sulfonyl)Piperidine-4-Carboxamide] | 1.75 | 3 |
| O=C(Nc1cnc2cc[nH]c2c1)C1CCN(S(=O)(=O)c2ccc3c(c2)CCO3)CC1 [Compound 89, 1-((2,3-dihydrobenzofuran-5-yl)sulfonyl)-N-(1H-pyrrolo[3,2-b]pyridin-6-yl)piperidine-4-carboxamide] | > 10 | 79 |
| O=C(Nc1cnc2[nH]ccc2c1)C1CCN(S(=O)(=O)c2ccc3c(c2)CCO3)CC1 [Compound 90, 1-((2,3-dihydrobenzofuran-5-yl)sulfonyl)-N-(1H-pyrrolo[2,3-b]pyridin-5-yl)piperidine-4-carboxamide] | > 10 | 69 |
| Cc1nc2cc(NC(=O)C3CCN(S(=O)(=O)c4ccc5c(c4)CCO5)CC3)ccc2s1 [Compound 91, 1-((2,3-Dihydrobenzofuran-5-yl)Sulfonyl)-N-(2-Methylbenzo[d]thiazol-5-yl)Piperidine-4-Carboxamide] | 0.138 | 17 |
| O=C(Nc1ccc2snnc2c1)C1CCN(S(=O)(=O)c2ccc3c(c2)CCO3)CC1 [Compound 100] | 0.129 | 14 |
| Cc1cc2scnc2cc1NC(=O)C1CCN(S(=O)(=O)c2ccc3c(c2)CCO3)CC1 [Compound 101, 1-((2,3-dihydrobenzofuran-5-yl)sulfonyl)-N-(6-methylbenzo[d]thiazol-5-yl)piperidine-4-carboxamide] | > 10 | 49 |
| O=C(Nc1cnc2scnc2c1)C1CCN(S(=O)(=O)c2ccc3c(c2)CCO3)CC1 [Compound 102, 1-((2,3-dihydrobenzofuran-5-yl)sulfonyl)-N-(thiazolo[5,4-b]pyridin-6-yl)piperidine-4-carboxamide] | > 10 | 56 |
| CC1(C(=O)Nc2ccc3scnc3c2)CCN(S(=O)(=O)c2ccc3c(c2)CCO3)CC1 [Compound 104, N-(benzo[d]thiazol-5-yl)-1-((2,3-dihydrobenzofuran-5-yl)sulfonyl)-4-methylpiperidine-4-carboxamide] | > 10 | 3 |
| CC1(C(=O)Nc2ccc3scnc3c2)CCN(S(=O)(=O)c2ccc3ncsc3c2)CC1 [Compound 105, N-(benzo[d]thiazol-5-yl)-1-(benzo[d]thiazol-6-ylsulfonyl)-4-methylpiperidine-4-carboxamide] | > 10 | 25 |
| CC1(C(=O)Nc2ccc3scnc3c2)CCN(S(=O)(=O)c2ccc(Cl)nc2)CC1 [Compound 106, N-(benzol[d]thiazol-5-yl)-1-((6-chloropyridin-3-yl)sulfonyl)-4-methylpiperidine-4-carboxamide] | > 10 | 35 |
| CC1(C(=O)Nc2ccc3scnc3c2)CCN(S(=O)(=O)c2cccc3nsnc23)CC1 [Compound 107, 1-(benz.o[c][1.2.5]thiadiazol-4-ylsulfony1)-N-(benzo[d]thiazol-5-yl)-4-methylpiperidine-4-carboxamide] | > 10 | 24 |
| O=C(Nc1ccc2scnc2c1)C1(F)CCN(S(=O)(=O)c2ccc3ncsc3c2)CC1 [Compound 108] | > 10 | 22 |
| Cc1nn(C)cc1S(=O)(=O)N1CCC(F)(C(=O)Nc2ccc3scnc3c2)CC1 [Compound 109, N-(benzo[d]thiazol-5-yl]-1-((1,3-dimethyl-1H-pyrazol-4-yl)sulfonyl)-4-fluoropiperidine-4-carboxamide] | > 10 | 9 |
| Cn1cnc2cc(NC(=O)C3CCN(S(=O)(=O)c4ccc5c(c4)CCO5)CC3)ccc21 [Compound 110, 1-((2,3-dihydrobenzofuran-5-yl)sulfonyl)-N-(1-methyl-1H-benzo[d]imidazol-5-yl)piperidine-4-carboxamide] | > 10 | 53 |
